Measured values from patent US10487119B2, “Peptides for diagnosis and treatment of cancer” (National Taiwan University, priority 2013, dated 2019).
Like-named read-outs stand apart in the source and are kept apart here. No end group written: not given here.

Legend:
[1] = system: NPC-TW07 cells; experiment: Flow cytometry analysis of FITC-peptide binding to cells; type: cell-based
Text: (§1) The cultured cells, including nasopharyngeal carcinoma (NPC-TW01 and NPC-TW07), non-small cell lung cancer (H1299 and A549), neuroblastoma (Be2C), breast cancer (MB157) and immortalized embryonic renal epithelia (TEKID) ([…]) are subjected to flow cytometer (FACSCAN, BD Co., U.S.A.) after the FITC (Fluorescein isothiocyanate)-targeted peptide SEQ ID NO:1 treatment. Simultaneously, FITC-control peptide, FITC-biotin-targeted peptide SEQ ID NO: 1 (B-P) and FITC-biotin-control peptide (B-C-P) are used for flow cytometry comparison.

[2] = system: immortalized embryonic renal cell line (293T); experiment: as above; type: cell-based, human; details: 293T immortalized renal cell line
Text: as §1

[3] = system: breast cancer (MB157) cells; experiment: as above; type: cell-based
Text: as §1

[4] = system: non-small cell lung cancer (A549) cells; experiment: as above; type: cell-based
Text: as §1

[5] = system: non-small cell lung cancer (H1299) cells; experiment: as above; type: cell-based
Text: as §1

[6] = system: neuroblastoma (Be2C) cells; experiment: as above; type: cell-based
Text: as §1

[7] = system: NPC-TW01 cells; experiment: as above; type: cell-based
Text: as §1

[8] = system: hepatoma and pancreatic cancer cells; experiment: FITC-peptide binding to hepatoma and pancreatic cancer cells; type: cell-based
[9] = system: hepatocellular carcinoma surgical specimens; experiment: Peptide histochemistry of hepatocellular carcinoma (HCC) surgical specimens; parameters: species or system human; details: for Prussian blue staining pattern in HCC surgical sections: 40 μg per mL, overnight; for Average percentage of stained tumor cell number 25-50% / Average percentage of stained tumor cell number <25% / Average percentage of stained tumor cell number >75%: N = 30, ten HPF (x 400)
Method: For hepatocellular carcinoma surgical specimens, after the deparaffinization of the paraffin-embedded sections and retrieval of targeted protein molecule, as part of the routine immunohistochemistry described as above-mentioned, the sections were incubated overnight with (a) The L-P-Fe3O4 (40 μg per mL); (b) SP-94-P-Fe3O4 (40 μg/mL); (c) one to one ratio of (a) and (b), then with routine Prussian blue reagents, followed by a counter staining for 2 min with nuclear fast red solution. The present invention has used this method to examine 30 hepatocellular carcinoma surgical specimens without difficulty. To count the positive stained cell number of the Prussian blue stained cells in each paraffin section, which are counted 10 high power fields (×400).

[10] = system: normal peripheral blood cells; experiment: Prussian blue staining of normal peripheral blood smears; type: cell-based, human
Text: The present invention prepared L-peptide-linked dextran-coated iron oxide nanoparticles, such as, L-P-Fe3O4, SP-94-P-Fe3O4, PC5-52-P-Fe3O4 and control-peptide-Fe3O4 nanoparticles (C-P-Fe3O4). The dextran coated-Fe3O4 nanoparticles (Dex-Fe3O4) were purchased from MAGQU Company. This company conjugates L-peptide, SP-94-peptide and PC5-52-peptide, separately, to the Dex-Fe3O4 nanoparticles. Each Dex-Fe3O4 can be linked with more than 10 peptide molecules. For localization of the peptide targeted protein in HepG2 and Huh-7 cell lines, the present invention first have to check whether our peptide can also bind to the mononuclear cells in the human peripheral blood. The mononuclear cells were obtained from the normal personal blood using Histopaque-1077 solution (SIGMA, St, Louis, Mo. U.S.A).
(§2) After the blood smears were fixed by formaldehyde, they were treated with or without Triton X-100 detergent and then stained with L-P-Fe3O4, SP-94-P-Fe3O4 or Control-P-Fe3O4 (C-P-Fe3O4) (40 μg/mL) and subjected to Prussian blue reaction with nuclear fast red contrast staining. Using the similar peptide histochemical procedure, the HepG2 and Huh-7 tumor cells were also stained. But in addition to the L-P-Fe3O4 and SP-94-P-Fe3O4, a ratio of 1:1 of L-P-Fe3O4: SP-94-P-Fe3O4 were mixed and used to stain the HepG2 and Huh-7 tumor cells.

[11] = system: NPC biopsy specimens; experiment: Peptide histochemical localization in formalin-fixed paraffin-embedded NPC biopsy specimens; parameters: species or system human; details: overnight at 4° C.
Method: (§3) The sections are incubated overnight at 4° C. with the P-Dex-Fe3O4 nanoparticles, and washed with PBS, then are incubated for 15-30 min with routine Prussian blue reagent (containing 2% potassium ferricyanide (Sigma-aldrich.com. St Louis Mo., U.S.A.) and 0.5 N HCl in dH2O=1:1), followed by counterstaining for 5 min with nuclear fast red solution, washed with water, and mounted with 50% glycerol directly or with balsam after alcohol dehydration.

[12] = system: pancreatic cancer (Pan 1) cell line; experiment: Prussian blue staining of pancreatic cancer cell line; type: cell-based
Method: (§4) Blood monocytes, hepatoma (Hep G2) and pancreatic cancer (Pan 1) cell lines are incubated with P-Dex-Fe3O4 nanoparticle for 1.0 hr and 37° C. for 4 hr, and then are stained with Prussian blue reagent.

[13] = system: Huh-7 tumor cells; experiment: Prussian blue staining of formalin-fixed, Triton X-100 treated HCC cell line; type: cell-based
Method: as §2

[14] = system: HepG2 tumor cells; experiment: as above; type: cell-based
Method: as §2

[15] = system: breast cancer cells (MDA-MB-231); experiment: Prussian blue staining of breast cancer cell line; type: cell-based
[16] = system: hepatoma surgical specimens; experiment: Peptide histochemical localization in hepatoma surgical specimens; parameters: species or system human; details: for Prussian blue reaction product in tumor cells of hepatoma sections: formalin-fixed paraffin-embedded
Text: Peptide histochemical diagnosis of the present invention can be applied to hepatoma surgical specimens.

[17] = system: pancreatic cancer sections; experiment: Peptide histochemical localization in pancreatic surgical specimens; parameters: species or system human; details: formalin-fixed paraffin-embedded
Text: Peptide histochemical diagnosis of the present invention can be applied to pancreatic surgical specimens, ether the targeted peptide is SEQ ID NO: 1 or SEQ ID NO: 2.

[18] = system: NPC cells (NPC-TW01); experiment: Prussian blue staining of cultured NPC cells incubated with peptide-linked iron oxide nanoparticles; type: cell-based; details: 4° C. for 1.0 hr and 37° C. for 4 hr
Text: The dextran coated-Fe3O4 is linked with the targeted peptide SEQ ID NO:1 or the FITC-targeted peptide SEQ ID NO:1 by the MagQu Company. Dextran is used as the hydrophilic surfactant layer. The iron oxide fluid with the desired concentration is available by diluting the highly concentrated iron oxide fluid with a pH 7.4 phosphate buffered saline (PBS) solution. […] Cells are washed in a 2% fetal bovine serum in PBS. After fixation, the binding ability between the targeted peptide SEQ ID NO: 1 and tumor cells can be observed by Prussian blue reagent; each iron oxide nanoparticle is bound by approximately above 10 targeted peptides.

[19] = system: hepatoma (Hep G2) cell line; experiment: Prussian blue staining of hepatoma cell line; type: cell-based
Text: In addition to the targeted peptide SEQ ID NO: 1, the present invention also provides another targeted peptide SEQ ID NO: 2 for synthesizing the targeted peptide SEQ ID NO: 2-linked dextran-coated iron oxide nanoparticles.

[20] = system: blood monocytes; experiment: Prussian blue staining of blood monocytes; type: cell-based; details: 1.0 hr and 37° C. for 4 hr
Method: as §4

[21] = system: breast cancer surgical specimens; experiment: Peptide histochemical localization in breast cancer surgical specimens; parameters: species or system human
Method: as §3

[22] = system: HepG2 xenografts; experiment: Peptide targeted chemotherapy of mice bearing HepG2 xenografts; type: in vivo; details: SCID mice bearing hepatoma xenograft
Method: For the peptide targeted chemotherapy, 40 male SCID mice were transplanted with […] HepG2 cells into their right thigh subcutaneously; after 10 days, solid xenografts measuring approximately 0.8 cm in diameter were found in each mouse, then they were divided into four groups (each group included 10 mice). The first group was injected with PBS; the second and third groups were injected either with L-P-L-D or PC5-52-P-L-D, separately. Each dose contained 2 mg doxorubicin/kg of mouse body weight. The fourth group mice were injected with L-P-L-D (1 mg doxorubicin/kg) mixed with PC5-52-P-L-D (1 mg doxorubicin/kg). All doses were injected through the tail vein, once per week, for a total of 4 injections, and all animals were sacrificed at day 35. The body weight and tumor size were measured weekly. All animals were examined by routine autopsy. The xenograft tumors and all visceral organs were examined by histopathological sections after stained by hematoxylin and eosin. The pegylated peptide was linked to L-D in our laboratory according to our previously published methods (Cancer Res. 64:8002-8008, Nov. 1, 2004). For comparison, another animal experiment was performed. In the later experiment, the present invention used NSG (NOD-SCID immunodeficiency gamma strain animals); the experiments were totally similar to the NOD SCID mice case. […]

[23] = system: NPC cells; experiment: Addition of targeted peptide to NPC cell culture medium; type: cell-based; details: 1 mg/mL in NPC cells culture medium, sustained to 10 days
Text: Apparently, this finding indicate that the protein bound by the targeted peptide is not a receptor protein or the like thereof.

FITC-linked control peptide SEQ ID NO: 3: FITC-labelled control peptide (RLLDTNRPLGGG; also: FITC label) [reference compound]
binding to NPC-TW07 cells (flow cytometry histogram) [1]: very weak binding activity

FITC-targeted peptide SEQ ID NO: 1: fluorescein isothiocyanate-labelled targeted peptide SEQ ID NO:1 (RLLDTNRPLLPY; also: FITC label)
binding to 293T cells (flow cytometry) [2]: without showing any binding phenomenon
binding to MB157 cells (flow cytometry) [3]: a clear binding peak
binding to A549 cells (flow cytometry) [4]: a clear binding peak
binding to NPC-TW07 cells (flow cytometry histogram) [1]: a clear peak is found in the histogram
binding to H1299 cells (flow cytometry) [5]: a clear binding peak
binding to Be2C cells (flow cytometry) [6]: a clear binding peak
binding to NPC-TW01 cells (flow cytometry) [7]: a clear binding peak

FITC-targeted peptide SEQ ID NO: 2: FITC-labelled targeted peptide SEQ ID NO: 2 (SFSIIHTPILPL; also: FITC label)
binding to hepatoma and pancreatic cancer cells [8]: can be used to bind to hepatoma and pancreatic cancer cells

P-Dex-Fe3O4 (RLLDTNRPLLPY)
Prussian blue staining pattern in HCC surgical sections [9]: the Prussian blue reaction product was easily identified in the tumor cells in stained sections
Average percentage of stained tumor cell number 25-50% [9]: 7 cases
Average percentage of stained tumor cell number <25% [9]: 6 cases
Average percentage of stained tumor cell number >75% [9]: 17 cases
Prussian blue reaction product in fixed blood smears treated with Triton X-100 ([10]; with Triton X-100): the mononuclear cells but not red blood cells showed blue reaction product in their cytoplasm
Prussian blue reaction product in blood smears fixed in formalin ([10]; without Triton X-100): no reaction product was seen
Prussian blue reaction product in tumor cells of NPC biopsy sections [11]: the Prussian blue reaction product is easily identified in the tumor cells of stained sections
Prussian blue reaction product in pancreatic cancer cell line [12]: show blue reaction products
Prussian blue stained Huh-7 tumor cells [13]: stained cell number is somewhat a little more than that of SP-94-P-Fe3O4 stained case
Prussian blue stained HepG2 tumor cells [14]: many tumor cells were stained by a blue reaction product
Prussian blue reaction product in breast cancer cells [15]: the reaction products appear in most of the cytoplasm of breast cancer cells
Prussian blue reaction product in tumor cells of hepatoma sections [16]: show in single infiltrating tumor cells
Prussian blue reaction product in normal cells of hepatoma sections ([16]; normal cells compressed by tumor cells): the blue reaction products do not show in the normal cells
Prussian blue reaction product in pancreatic cancer sections [17]: all show the reaction products
Prussian blue reaction product in NPC cells [18]: the reaction products are seen in the cytoplasm of a majority of the tumor cells
Prussian blue reaction product in hepatoma cell line [19]: show blue reaction products
Prussian blue reaction product in hepatoma cell line ([19]; listed as targeted peptide SEQ ID NO:1-linked dextran-coated iron oxide nanoparticles): blue reaction product
Prussian blue reaction product in blood monocytes [20]: no reaction product
Prussian blue reaction product in tumor cells from breast cancer metastatic axillary lymph nodes [21]: reveal blue reaction product
Prussian blue reaction product in stromal regions in tumor nests ([21]; breast cancer sections): no blue reaction product
Prussian blue reaction product in breast cancer sections ([21]; formalin-fixed paraffin-embedded, specimens more than 1 cm in diameter): show the Prussian blue reaction products

SP-94-P-Fe3O4 (SFSIIHTPILPL)
Prussian blue staining pattern in HCC surgical sections [9]: the staining pattern was the same as L-P-Fe3O4 staining
Average percentage of stained tumor cell number 25-50% [9]: 9 cases
Average percentage of stained tumor cell number <25% [9]: 5 cases
Average percentage of stained tumor cell number >75% [9]: 16 cases
Prussian blue stained HepG2 tumor cells [14]: the stained cell number was lower than that of the L-P-Fe3O4 treated case
Prussian blue reaction product in tumor cells of hepatoma sections [16]: the Prussian blue products can also be observed in the tumor cells
Prussian blue reaction product in pancreatic cancer sections [17]: all show the reaction products
Prussian blue reaction product in hepatoma cell line [19]: blue reaction product

control peptide (RLLDTNRPLGGG; also: FITC or biotin label)
adverse event / visceral organs [22]: the visceral organs revealed marked apoptotic change
tumor growth / xenograft size [22]: the xenograft size was also decreased

targeted peptide SEQ ID NO: 1: 12 amino acid targeted peptide (L-peptide) obtained from nasopharyngeal carcinoma (RLLDTNRPLLPY)
change of tumor cell morphology and behavior [23]: no any specific change of tumor cell morphology and behavior
